The values below come from patent EP0968998A1, “Cosmetic compositions, ceramide analogues with anti-elastase activity and process for their preparation” (ELF ATOCHEM S.A., priority 1998, dated 2000).

In experiment [1] the test system is stratum corneum. Briefly: Skin hydration: capacitance measurement (Corneometer Courage+Khazaka CM 200), hydration index, cream applied to forearm. The format is in vivo, volontaires sains ayant une peau sèche. The following applies: cream with 0,5 % (ex. 7, témoins), 1 % (ex. 4, 8), 5 % (ex. 6). An excerpt: (§1) Les exemples qui suivent permettent d'illustrer l'invention. […] Les valeurs sont exprimées en nombre d'onde par centimètre. - Résonance magnétique nucléaire (RMN) Les spectres sont réalisés au moyen d'un appareil BRUCKER DRX 500, à 500 MHz (^1H) et 125 MHz (^13C) dans le DMSO-d6. La calibration de l'appareil est effectuée au moyen de DMSO. Les déplacements chimiques sont exprimés en ppm. […] On utilise le N-succinyl-(Ala)3-p-nitroanilide en solution dans le tétrahydrofurane et une solution d'élastase à 100 mg/ml dans un mélange de glycérol et de tampon acétate de sodium (50/50; v/v), pH5. L'activité de l'enzyme est mesurée à 37°C dans 100 mM de tampon Tris-HCI, pH8 contenant 0,01 % de Triton X-100 (volume/volume) et 0,02 % d'azide de sodium (poids/volume). Le céramide à tester, solubilisé dans le tétrahydrofurane (concentration en THF = 0,5 % en volume) est préincubé en présence de l'enzyme (0,05 mg/ml) dans le tampon pendant 5 minutes à 37°C. On ajoute le N-succinyl-(Ala)3-p-nitroanilide (concentration finale : 250 µM) et on mesure la libération de la p-nitroaniline dans une cuve en quartz par spectrophotométrie à 410 nm. La capacité inhibitrice du céramide est exprimée en pourcentage d'inhibition (% I) selon la relation : %I = (1 -(Vi)/(Vo))×100 [formula] dans laquelle Vi et Vo sont les vitesses d'apparition de la p-nitroaniline en présence et en absence d'inhibiteur respectivement. - Mesure de l'amélioration de la barrière cutanée a) mesure de la Perte Insensible en Eau (PIE) La mesure de la PIE permet de quantifier la très faible quantité d'eau qui diffuse passivement à travers le stratum corneum. Ce paramètre représente un très bon index de la fonction barrière du stratum corneum. Cette méthode est surtout utilisée pour contrôler l'efficacité de formules cosmétiques qui, contenant certains types de lipides sont capables de diminuer la PIE et, en conséquence, d'empêcher la déshydratation du stratum corneum. La sonde est laissée en contact de la peau pendant 2 minutes environ de façon à atteindre une position d'équilibre. PIE = D'(dP)/(dx)(gradient de pression de vapeur) [formula] Les valeurs sont exprimées en g/m^2/heure et permettent de calculer un delta de PIE = PIE (peau traitée) - PIE (peau témoin). L'appareil utilisé est un Evaporimètre EPI de Servomed. Les mesures sont effectuées sur deux groupes de 15 volontaires sains ayant une peau sèche, avant l'application du produit (t=0) et après l'application (t=0,5 heure, 1 heure, 3 heures et 6 heures) sur la face interne des deux avant-bras. L'analogue de céramide selon l'invention ou le céramide témoin est incorporé dans une crème ayant la composition suivante (en % en poids) :
(§2) La teneur en analogue de céramide dans la crème est égale à 0,5 % (exemple 7), 1 % (exemples 4 et 8) et 5 % (exemple 6), et celle des céramides témoins (a) et (b) est égale à 0,5 %. La diminution des valeurs de PIE signifie une amélioration de la qualité de la barrière cutanée qui traduit un meilleur pouvoir retentionnel de l'eau au niveau de la couche cornée et donc une meilleure hydratation. b) hydratation cutanée L'eau peut être considérée comme un dipôle électrique capable de conduire l'électricité. Le transport d'électricité dans un champ donné est proportionnel à la quantité d'eau présente dans le stratum corneum. Plus une peau est riche en eau et plus le courant électrique passe rapidement entre 2 électrodes. Il existe donc un lien entre l'hydratation du stratum corneum et les modifications des propriétés électriques. Les mesures de capacitance, liée à la constante diélectrique de la peau, sont réalisées par le Cornéomètre Courage+Khazaka CM 200, dont la sonde présente une surface de contact avec la peau de 49 mm^2; cette sonde est appliquée avec une pression constante sur la surface cutanée à mesurer, et l'indice d'hydratation directement proportionnel au taux hydrique de surface est instantané.

Experiment [2] concerns stratum corneum. Briefly: Skin barrier improvement: transepidermal (insensible) water loss (PIE), Servomed evaporimeter, cream applied to inner forearm. In kind it is in vivo, volontaires sains ayant une peau sèche. The following applies: cream with 0,5 % (ex. 7, témoins), 1 % (ex. 4, 8), 5 % (ex. 6).
Description: as §1, §2

The mark [3] stands for this setting: t=0 heure (before application, baseline).

Each structure is given as a SMILES string.

As to `CCCCCCCCCCCCCCCCCC(=O)NC(CC)(CO)COC(=O)CCCCCCCCCCCCCCCCC` (stereo not shown) [Exemple 4, 1-stéaroyl-2-éthyl-2-stéaroylamino-1,3-propanediol], the “Indice d'Hydratation (IH) M±s” value in experiment [1] (t=0,5 heure after application) is 66,87±7,50; in experiment [1] (setting [3]), 64,69±9,04; in experiment [1] (t=1 heure after application), 65,56±6,96; in experiment [1] (t=3 heures after application) it was 62,31±7,17; in experiment [1] (t=6 heures after application) it was 62,91±7,78. Also, the “Perte Insensible en Eau (PIE) M±s” value in experiment [2] (t=0,5 heure after application) is on record as 3,89±0,85 g/m^2/heure; in experiment [2] (setting [3]) it was 4,52±0,79 g/m^2/heure; in experiment [2] (t=1 heure after application) it was 2,95±1,15 g/m^2/heure; in experiment [2] (t=3 heures after application) it was 4,30±0,97 g/m^2/heure; in experiment [2] (t=6 heures after application), 4,00±1,24 g/m^2/heure.
